# Measurements as given in paper PMC7998974, “Enhanced Efficacy of Thiosemicarbazone Derivative-Encapsulated Fibrin Liposomes against Candidiasis in Murine Model” (Pharmaceutics, 2021).
# Key:
# [1] = Pharmacokinetics in healthy mice; assay type: in vivo; conditions: single dose, formulations 5 mg/kg b.w., free 2C 1 mg/kg b.w.
# Description: For pharmacokinetic studies, 2C-L and 2C-FL were administered to healthy mice. A single dose of 5 mg/kg body weight (b.w.) of the formulations was injected via the tail vein. Free 2C was administered in a single dose comprising 1 mg/kg b.w. Blood aliquots were collected using a non-mortality model at different periods, and serum was centrifuged out. […] Results are reported as the mean ± SD of three independent experiments.
# [2] = Erythrocyte lysis test (in vitro toxicity); assay type: cell-based; conditions: rabbit erythrocytes (0.2% RBC suspension), pH 7.4, dose of 10 mg/L, 37 °C, read-out: hemolytic ability to erythrocytes (percent hemolysis)
# Description: The in vitro toxicity of free 2C and 2C-FL was determined using the previously published method of erythrocyte lysis test. Briefly, blood samples from a healthy rabbit were collected in an anticoagulant solution. The samples were centrifuged at 4 °C, the pellet containing erythrocytes was washed with PBS (pH 7.4), and, finally, 50% hematocrit was prepared. […] The hemolytic effects were evaluated by visible spectroscopy at 576 nm, and percent hemolysis was calculated. The 100% hemolytic ability of Triton X-100 was taken as the positive control. Results are expressed as the mean ± SD of three independent experiments.
# [3] = In vivo renal and hepatic toxicity (serum creatinine, ALT, total bilirubin); conditions: healthy mice
# Description: (§1) For in vivo toxicity, renal and hepatic toxicities were evaluated in healthy mice. According to the method of Khan et al., [39], a three-dose regimen of 400 µg formulation/dose/mouse was intraperitoneally given on the 1st, 3rd, and 5th days. Blood samples from different treatment groups were taken as pre-dose (a day before the administration of the formulation) and post-dose (the 6th day of the administration of the formulation). The levels of serum creatinine, ALT, and total bilirubin were evaluated by employing a commercial detection kit. Results are expressed as the mean ± SD of three independent experiments. Moreover, the extent of toxicity of 2C-FL was determined on liver and kidney histopathology.
# [4] = Histopathological examination of liver and kidney sections; assay type: in vivo; conditions: healthy mice, H&E, 200X
# Description: as §1
# Briefly, the fixed tissues were dehydrated and embedded in paraffin wax. […] Next, paraffin from the sections was removed by three consecutive washings in xylol. The sections were then […] in series of alcohol grades (70–100%), and, finally, the sections were stained with hematoxylin and eosin and visualized under a light microscope (Olympus CLX 41) at 200X magnification.
# C. albicans (ATCC 18804) = assay: Minimum inhibitory concentration by broth microdilution; assay type: cell-based; conditions: Candida albicans, ATCC18804, 50% inhibition of growth, RPMI 1640, 24 h, 37 °C, formulation weight for formulations
# C. albicans [5] = assay: Annexin-V assay for detecting apoptosis; assay type: cell-based, Candida albicans; conditions: annexin V-FITC/PI flow cytometry
# Description: The therapeutic effect of 2C-FL against fungal infection was done by detecting the presence of apoptosis markers in C. albicans, as mentioned by Tang et al.. Briefly, 5 × 10^6 colony-forming units (CFU)/mL of C. albicans were grown at 37 °C for 5 h in the RPMI 1640 medium containing 2C-L and 2C-FL, separately. The culture was further incubated for 48 h at 37 °C with shaking at 180 rpm. After harvesting and washing with PBS (pH 7.4), the fungus was digested with a lysis buffer. After digestion, apoptotic cell death was analyzed using an annexin V assay as per the published protocol. The fungal cell suspension was incubated with annexin V-FITC (50 µg/mL) and propidium iodide (PI; 200 µg/mL) in dark for 20 min at room temperature. The apoptotic and necrotic cells were scored by flow cytometry (MACSQuant, Germany).
# [6] = Determination of 2C dose (LD50) in healthy mice; assay type: in vivo
# Description: The dose of 2C for the antifungal treatment in vivo was determined according to the already published report. Five groups (n = 5/group) comprising healthy mice were intraperitoneally injected with different doses of 2C. Mice of the sixth group (control group) were intraperitoneally injected with PBS.
# C. albicans [7] = assay: Survival of C. albicans-infected mice; assay type: in vivo, Swiss albino mice; conditions: 2 mg 2C/kg b.w. for five days
# Description: The antifungal activity of 2C-FL was determined in a mouse model with C. albicans infection. For infection, healthy mice were infected with an inoculum of 100 µL saline containing 5 × 10^5 CFU of C. albicans per mouse by an intravenous route in the lateral tail vein. One day post-infection, the mice were randomly distributed into six groups (n = 10/group) and treated with formulations (2 mg 2C/kg b.w.) for five days. […] A simultaneous set of experiments was conducted for the survival studies.
# The antifungal ability of 2C-FL was also determined by evaluating the survival rate of the treated mice. The study was conducted for 60 days, during which mice were monitored for mortality twice each day and results were scored.
# [8] = tested on: Candida albicans ATCC 66027, Candida spp. 12,810 (blood) and Candida spp.; design: method as in PMID 24513049; conditions: in vitro, series of substituted thiosemicarbazide derivatives; cited from earlier work
# non-cancer cell lines = tested on: non-cancer cell lines; design: method as in PMID 24513049; conditions: cited from earlier work
# [9] = design: method as in PMID 26457700; conditions: solubility checked earlier; cited from earlier work
# [10] = serum, post-dose, 400 µg formulation/dose/mouse i.p. on days 1, 3, 5
compound,measurement,setting,value
O=C(NNC(=S)Nc1ccc(Cl)cc1)c1ccncc1 [2C],Cmax,"[1]; Swiss albino, mouse, plasma, intravenous",1400 ± 250 ng/mL
same,clearance,"[1]; Swiss albino, mouse, plasma, intravenous, read-out: CL (plasma clearance) (converted)",1.28 mL/min
same,AUC0–24,[1],0.91 ± 0.17 µg/mL x h
same,"hemolysis at 1 h, 10 mg/L",[2],100%
same,"ALT, Day 6",[3]; [10],45.1 ± 8.5 U/I
same,"Creatinine, Day 6",[3]; [10],0.34 ± 0.05 mg%
same,"Total Bilirubin, Day 6",[3]; [10],0.21 ± 0.07
same,"ALT, Day 0","[3]; serum, pre-dose",40.9 ± 7.3 U/I
same,"Creatinine, Day 0","[3]; serum, pre-dose",0.29 ± 0.06 mg%
same,"Total Bilirubin, Day 0","[3]; serum, pre-dose",0.15 ± 0.04
same,"change in serum creatinine, ALT and bilirubin levels versus healthy control",[3]; sixth day,showed an increase
same,toxic effect on kidney histopathology,[4],prominent toxicity
same,toxic effect on liver histopathology,[4],focal lytic necrosis and enlarged sinusoids
same,MIC,C. albicans (ATCC 18804),0.46 ± 0.05 µg/mL
same,necrosis,C. albicans [5],prominent increase
same,LD50,"[6]; healthy mice, intraperitoneal, mortality after 24 h",20 mg/kg b.w.
same,mortality at one-tenth of the LD50,"[6]; mice, 2 mg/kg b.w., three weeks of treatment",did not show any mortality
same,survival of treated mice till the 30th day,C. albicans [7],30%
same,anti-Candida activity within the series,[8],most effective one
same,toxicity to non-cancer cell lines,non-cancer cell lines,minimal toxicity
same,solubility in water,[9],insoluble in water
"CCC(C)n1ncn(-c2ccc(N3CCN(c4ccc(OCC5COC(Cn6cncn6)(c6ccc(Cl)cc6Cl)O5)cc4)CC3)cc2)c1=O (stereo not shown) [Itraconazole, itraconazole, reference compound]",MIC,C. albicans (ATCC 18804),1.26 ± 0.71 µg/mL
